Measurements reported in patent US20120283190A1, “ENDOTHELIN INHIBITORS FOR THE TREATMENT OF RAPIDLY PROGRESSIVE GLOMERULONEPHRITIS” (Institut National De La Santé Et De La Recherche Medicale …, priority 2009, published 2012).
Where a SMILES comes first, the peptide text is derived from it. [ ]: non-standard residue; d: D form.

Experiments:
[1] = test system: experimental model of RPGN; experiment: anti-GBM RPGN model, continuous infusion of selective ETA or ETB antagonist by subcutaneous osmotic minipumps; type: in vivo, C57B1/6J mice; settings: 100 nmol·kg−1·day−1 by minipump; for plasma urea concentration (index of renal failure): vehicle 34.3±6.1 mmol/L
[2] = test system: murine podocyte cell line; experiment: migration assay in cultured podocytes (Ibidi Culture-Insert, gap coverage); type: cell-based, mouse; settings: coverage of 500 μm gap after 20 hours of culture; vs vehicle (RPMI with DMSO)
Experimental: Selected experiments (migration studies) were performed in a murine podocyte cell line (Schiwek D et al, 2004) derived from isolated from kidneys of Immorto-Mouse® mice (Charles River, St. Louis, Mo., USA), carrying a temperature-sensitive mutant of the immortalizing SV40 large T antigen under control of the interferon-gamma (INF-γ)-inducible H-2 Kb promoter. Migration assays were performed in μ-Dish 35 mm high with Culture-Insert (Ibidi). Ibidi's wounding inserts were used for cell migration or cell invasion studies. […] The inserts can be inserted into any bio-compatible surface and used to culture one or multiple cell lines. These inserts have two wells that create 2 distinct cell patches with a defined gap of 500 μm. The coverage of this gap after 20 hours of culture was assessed in the presence of the selective ETA antagonist BQ123 or the ETB antagonist BQ 788 (Calbiochem) or vehicle (RPMI with DMSO).

[3] = test system: accelerated anti-GBM RPGN model; experiment: accelerated anti-GBM RPGN model, bosentan mixed with food; type: in vivo, C57B1/6J mice; settings: bosentan 50 mg/kg/d oral in food
Experimental: Male and female C57B1/6 mice weighing 20-25 g, 10 weeks old, purchased from Charles River France, were housed in a room with a 12 h light-dark cycle with water and food ad libido. […] The animals were sacrificed by injection of pentobarbital (100 mg/kg i.p.)
The accelerated anti-GBM RPGN model was used, as previously described in Topham P S et al, 1999 and Lloyd C M et al, 1997. Briefly, C57B1/6J male mice were given subcutaneous injections of 200 μg normal sheep IgG (100 μl into each flank of normal sheep IgG (Sigma) diluted to 1 mg/ml in a solution of 50% Freund's complete adjuvent and 50% saline). Six days later (day 1), GN was induced by intravenous injection of 50 μL sheep anti-glomerular basement membrane (GBM) serum diluted to 70 mg/ml in saline. Serum injections were repeated twice (on days 2 and 3), with the serum volume increased to 250 μL. From days 0 to 14, mice were given bosentan, an orally active endothelin antagonist (designated chemically as 4-tert-butyl-N-[6-(2-hydroxy-ethoxy)-5-(2-methoxy-phenoxy)-[2,2′]-bipyrimidin-4-yl]-benzenesulfonamide monohydrate). We manually grinded 62.5 mg film-coated tablets of […] ® (bosentan) for oral administration and mixed them with powdered food supplied to the animals at an active dose of 50 mg/kg/d for 14 days as previously described^3. […] The treated group (n=7) was compared to vehicle-treated animals (n=6). […]
Normalized albumin urinary excretion was evaluated from urine samples collected for 18 h in metabolic cages (Techniplast). Urinary creatinine and albumin were quantified spectrophotometrically using colorimetric methods (Olympus).
For light microscopy, half mouse kidneys were fixed and embedded in paraffin, and 3 μm-thick sections were cut. Histopathological changes were evaluated using Masson's trichrome coloration by an examiner who was blind to the experimental conditions. The proportion of crescentic glomeruli was determined by examination of at least 50 glomeruli per section.

SMILES	plasma urea concentration (index of renal failure) [1]	Albuminuria normalized to creatininuria ([1]; day 7 after infusion of the anti-GBM serum, versus PBS-treated animals)	migration of cultured podocytes [2]	Albuminuria normalized to creatininuria, fold lower than in vehicle-treated counterparts ([3]; day 5 after infusion of the anti-GBM serum, p=0.0053)	crescentic glomeruli, fold less than in vehicle-treated counterparts ([3]; day 14 after infusion of the anti-GBM serum, p=0.0057)	fibrinogen deposition in glomeruli with disappearance of podocin positive podocytes ([3]; mice with anti-GBM serum-induced RPGN)
CC(C)C[C@@H]1NC(=O)[C@@H](C(C)C)NC(=O)[C@@H]2CCCN2C(=O)[C@@H](CC(=O)O)NC(=O)[C@@H](Cc2c[nH]c3ccccc23)NC1=O [BQ123] (cyclo(L[dW][dD]P[dV]))	17.5 ± 2.5 mmol/L	–	–	–	–	–
CCCC[C@@H](NC(=O)[C@@H](Cc1cn(C(=O)OC)c2ccccc12)NC(=O)[C@H](CC(C)(C)C)NC(=O)N1[C@H](C)CCC[C@@H]1C)C(=O)O [BQ788]	12.3 ± 2.1 mmol/L	prominent action	prominent action	–	–	–
COc1ccccc1Oc1c(NS(=O)(=O)c2ccc(C(C)(C)C)cc2)nc(-c2ncccn2)nc1OCCO [bosentan, 4-tert-butyl-N-[6-(2-hydroxy-ethoxy)-5-(2-methoxy-phenoxy)-[2,2′]-bipyrimidin-4-yl]-benzenesulfonamide monohydrate]	–	–	–	5.8 fold	14 fold	blunted
